Assay results as given in US11071738B2, “Therapeutic agent for fatty liver diseases and therapeutic agent for adiposity” (Hiroshima University, priority 2017, dated 2021).

Experiments:
[1] = test system: NASH mice (MCDD); assay: NASH treatment study in mice fed a methionine-choline-deficient diet (MCDD); format: in vivo, mice (C57BL/6J); conditions: NASH mice given MCDD, i.p. 2.5 mg/kg/day three times a week
Procedure: Next, an animal experiment was performed on NASH mice that were produced by feeding a methionine-choline-deficient diet (MCDD).

[2] = target: T1, Pin1 (Homo sapiens, UniProt Q13526); assay: Cell-based Pin1 inhibition assay with AMPK phosphorylation level as index; set-up: key to Pin1 inhibition activity: +++: a higher level of AMPK phosphorylation is promoted, as compared with C1; ++: a similar level of AMPK phosphorylation is promoted, as compared with C1; +: a lower level of AMPK phosphorylation is promoted, as compared with C1; −: no or almost no promotion is found in AMPK phosphorylation; conditions: 293T cells, compound at 100 μM, 10 mM 2-DG, pAMPK blot compared with C1
T1 construct: endogenous in cells; host or cells: 293T cells
T1 sequence (Q13526 whole entry): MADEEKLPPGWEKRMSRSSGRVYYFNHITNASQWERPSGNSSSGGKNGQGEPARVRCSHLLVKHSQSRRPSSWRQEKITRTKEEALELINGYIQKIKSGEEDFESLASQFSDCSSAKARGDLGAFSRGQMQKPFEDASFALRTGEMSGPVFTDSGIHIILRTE
Procedure: To evaluate the inhibitory activity of each synthesized compound against the function of Pin1, a cell-based assay was performed according to the method previously developed by the inventors (Yusuke Nakatsu et al., Journal of Biological Chemistry, 2015, Vol. 290, No. 40, pp. 24255-24266), in which the phosphorylation level of AMPK (AMP-activated protein kinase), a protein whose phosphorylation is inhibited by Pin1, was examined as an index.
Briefly, 293T cells were plated on a collagen-coated 24-well plate. Forty-eight hours later, each compound synthesized in the preceding example (at 100 μM) was added to the plate, and the plate was left to stand in an incubator for 30 minutes. Subsequently, 10 mM 2-DG was added to the plate, and one hour later, each sample was collected with a buffer containing mercaptoethanol and SDS.
SDS-PAGE and blotting were performed, and blocking was then performed with 3% BSA for 1 hour, according to conventional protocols. Subsequently, a pAMPK antibody (Cell Signaling; diluted 1:2000 in Can Get Signal Solution 1, Toyobo) as a primary antibody, and an HRP-linked anti rabbit IgG (GE Healthcare; diluted 1:4000 in Can Get Signal Solution 2, Toyobo) as a secondary antibody were allowed to react at ambient temperature for 1 hour prior to detection.
The inhibitory activity against the function of Pin1 was evaluated by comparing the inhibition levels between each compound and a known Pin1 inhibitor, C1, as indicated below: […]

[3] = test system: NASH model mice (HFDT)
Procedure: Animal experiments were performed using non-alcoholic steatohepatitis (NASH) model mice to test the compounds synthesized in Examples for the therapeutic effect on NASH.
NASH model mice (hereinafter referred to as “NASH mice”) were produced by feeding a high-fat diet containing trans fatty acids (HFDT) to individual male laboratory mice (C57BL/6J) for 8 weeks. […] In addition, a normal diet was given to individual male laboratory mice (C57BL/6J) for 8 weeks to prepare control mice.

[4] = HFDT NASH mice, 8 weeks, i.p. 2.5 mg/kg/day or oral 5.0 mg/kg/day three times a week

Compound	hepatic fibrosis (Azan staining) ([1]; 8 weeks)	Collagen 1a1 mRNA expression level [1]	Collagen 1a2 mRNA expression level [1]	SMA mRNA expression level [1]	Pin1 inhibition activity [2]	fat accumulation in liver tissue (microscopic observation) ([1]; 8 weeks)	blood ALT (GPT) value, index of liver inflammation [3, 4]	fasting blood glucose level [3, 4]	increase in liver weight [3, 4]	fat accumulation in liver tissue (microscopic observation) ([3]; NASH mice given HFDT)
O=C(O[C@H](Cc1ccc2ccccc2c1)C(=O)O)C1c2ccccc2-c2ccccc21 [Compound H-31]	significantly inhibited	reduced	reduced	reduced	+++					
O=C(O)[C@@H](Cc1ccc2ccccc2c1)NC(=O)n1c2ccccc2c2ccccc21 [Compound H-163]	significantly inhibited	reduced	reduced	reduced	++	reduced	decreased	no significant abnormality	significantly reduced	significantly reduced
